Measurements taken from patent publication US20120129842A1, “BISTHIAZOLE INHIBITORS OF PRO-MATRIX METALLOPROTEINASE ACTIVATION” (priority 2010, published 2012).
Where a name gives a salt, the structure may show the parent alone.

What was measured:
[1] = target: T1, proMMP13(1-268) (SEQ ID NO:7) (Homo sapiens, UniProt P45452); assay: ThermoFluor binding assay with proMMP13(1-268); set-up: 6xHis (C); made in house; settings: pH 7.0
In short: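 Thermal shift binding with 3.5 μM protein and 25 μM 1,8-ANS in 50 mM HEPES pH 7.0, 100 mM NaCl, 0.001% Tween-20, 2.5 mM MgCl2, 300 μM CaCl2. Samples were heated 40 to 90 °C at 1 °C/min, fluorescence read at 500 nm. Tm shifts across an 11-point DMSO dilution series were fitted with DSC-derived thermodynamic parameters.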

[2] = target: T2, full-length proMMP9(1-707) (SEQ ID NO:1) (Homo sapiens, UniProt P14780, R574P); assay: ProMMP9/MMP3 DQ Gelatin Activation Assay; type: biochemical; settings: 20 nM proMMP9, 10 nM MMP3, DQ gelatin; read-out: ProMMP9/MMP3 DQ gel Activation Assay, IC50
T2 construct: made in house; host or cells: HEK293 (proMMP9, secreted); E. coli (MMP3)
T2 sequence (P14780 20-707 R574P): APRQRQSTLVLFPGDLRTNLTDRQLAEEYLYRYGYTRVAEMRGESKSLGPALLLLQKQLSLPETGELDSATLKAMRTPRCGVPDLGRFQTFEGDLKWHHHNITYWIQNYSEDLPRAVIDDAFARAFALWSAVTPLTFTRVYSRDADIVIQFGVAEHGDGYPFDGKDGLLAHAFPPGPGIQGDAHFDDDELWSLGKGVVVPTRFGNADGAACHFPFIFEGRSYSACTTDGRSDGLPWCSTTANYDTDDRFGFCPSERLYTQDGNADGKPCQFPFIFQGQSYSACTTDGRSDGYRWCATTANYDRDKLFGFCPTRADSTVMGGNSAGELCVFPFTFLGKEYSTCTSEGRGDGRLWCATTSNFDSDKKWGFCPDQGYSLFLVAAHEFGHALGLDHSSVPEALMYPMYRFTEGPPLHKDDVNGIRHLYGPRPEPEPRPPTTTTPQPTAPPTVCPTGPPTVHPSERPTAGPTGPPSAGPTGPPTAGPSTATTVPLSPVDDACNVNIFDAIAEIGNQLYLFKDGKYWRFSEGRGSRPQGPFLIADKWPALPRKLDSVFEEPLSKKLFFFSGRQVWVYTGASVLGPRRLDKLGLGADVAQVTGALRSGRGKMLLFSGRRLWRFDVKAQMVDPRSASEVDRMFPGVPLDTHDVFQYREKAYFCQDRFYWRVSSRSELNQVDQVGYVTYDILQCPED
Description: Compounds were assessed for inhibition of proMMP9 activation by catalytic MMP3 using a quenched fluorescein gelatin substrate (DQ gelatin, Invitrogen D12054) that fluoresces upon cleavage by activated MMP9. The assay buffer employed was 50 mM Hepes, pH 7.5, 10 mM CaCl2, 0.05% Brij-35. DMSO was included at a final concentration of 0.2%, arising from the test compound addition. […] Test compounds in DMSO were diluted 250-fold in assay buffer at 4× the final concentration. The reaction volume was 12 μL, and all reactions were conducted in triplicate. […] The plate was sealed and incubated for 30 min at 37° C. […] Immediately following the 30 min incubation, 4 μL of 40 μg/ml DQ gelatin substrate was added (freshly diluted in assay buffer), and incubated for 10 min at room temperature. The reaction was stopped by the addition of 4 μL of 50 mM EDTA, and the resulting activity associated with catalytic MMP9 was determined at 485 nm excitation, 535 nm emission using an Envision fluorescent reader (Perkin Elmer). Reactivity of residual MMP3 towards DQ gelatin was minimal under these conditions. Percent inhibition of test compounds were determined from suitable positive (DMSO only in assay buffer) and negative (EDTA added prior to reaction initiation) controls. Plots of % inhibition vs. test compound concentration were fit to a four-parameter logistics equation (GraphPad Prism® software) for determination of IC50.

[3] = target: T3, proMMP9(67-444;ΔFnII) (SEQ ID NO:5) (Homo sapiens, UniProt P14780, DEL216-390); assay: ThermoFluor binding assay with proMMP9(67-444;ΔFnII); settings: pH 7.0
T3 construct: start methionine (N); made in house; host or cells: E. coli BL21(DE3) RIL
T3 sequence (P14780 with tags, fused parts or gaps DEL216-390): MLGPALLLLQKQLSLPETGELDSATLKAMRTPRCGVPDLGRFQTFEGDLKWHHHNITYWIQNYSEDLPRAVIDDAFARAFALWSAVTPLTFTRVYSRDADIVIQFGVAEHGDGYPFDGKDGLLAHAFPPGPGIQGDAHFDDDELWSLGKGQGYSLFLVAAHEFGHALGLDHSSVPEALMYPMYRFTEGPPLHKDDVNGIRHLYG
In short: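 Thermal shift binding with 3.5 μM proMMP9(67-444;ΔFnII) and 50 μM 1,8-ANS in 50 mM HEPES pH 7.0, 100 mM NaCl, 2.5 mM MgCl2, 300 μM CaCl2, 0.001% Tween-20, with serially diluted compound. Heated 40 to 90° C at 1° C/min; fluorescence-derived Tm fitted using DSC/ThermoFluor thermodynamic parameters.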

[4] = target: T4, proMMP9(20-445;ΔFnII) (SEQ ID NO:6) (Homo sapiens, UniProt P14780, DEL216-390); assay: ThermoFluor binding assay with proMMP9(20-445;ΔFnII); settings: pH 7.0
T4 construct: start methionine (N); made in house; host or cells: E. coli BL21(DE3) RIL
T4 sequence (P14780 with tags, fused parts or gaps DEL216-390): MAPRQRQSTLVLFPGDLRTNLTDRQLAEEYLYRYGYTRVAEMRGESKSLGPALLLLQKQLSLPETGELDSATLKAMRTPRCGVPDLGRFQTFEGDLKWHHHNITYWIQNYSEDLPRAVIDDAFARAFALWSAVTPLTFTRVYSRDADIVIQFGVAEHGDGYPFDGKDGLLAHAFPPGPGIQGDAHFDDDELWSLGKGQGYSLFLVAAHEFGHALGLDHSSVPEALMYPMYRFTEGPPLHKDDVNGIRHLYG
In short: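 proMMP9(20-445;ΔFnII) at 2.8 μM with 50 μM 1,8-ANS in 50 mM HEPES pH 7.0, 100 mM NaCl, 0.001% Tween-20, 2.5 mM MgCl2, 300 μM CaCl2; compounds serially diluted in DMSO. Heated 40–90 °C at 1 °C/min, fluorescence read at 500±25 nm. Tm fit by standard equations; binding fit using DSC/TF-derived thermodynamic parameters.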

[5] = target: T2, full-length proMMP9(1-707) (SEQ ID NO:1); assay: proMMP9/MMP3 P126 Activation Assay; type: biochemical; settings: 20 nM proMMP9, 20 nM MMP3, 80 min 37° C.
Description: The reaction volume was 50 μL. […] Reactivity of residual MMP3 towards P-126 substrate was minimal under these conditions.

[6] = target: T1, proMMP13(1-268) (SEQ ID NO:7); assay: ProMMP13/Plasmin P126 Activation Assay; type: biochemical; set-up: 6xHis (C); made in house; host or cells: HEK293 (transient, secreted); settings: 8 nM proMMP13, 16 nM plasmin, 40 min 37° C.
Description: On the day of assay, proMMP13(1-268) (SEQ ID NO:7) purified from HEK293 cells and plasmin were diluted to 160 nM and 320 nM, respectively, in assay buffer. The reaction volume was 50 μL. […] The plate was sealed and incubated for 40 min at 37° C. […] Plasmin was not reactive towards P-126 substrate under these conditions.

Kd [1] [µM] | IC50 [2] [µM] | Kd [3] [µM] | Kd [4] [µM] | IC50 [5] [nM] | IC50 [6] [nM] | Compound
30 | 9 | 1.1 | 9.8 | – | – | COc1ccc(C)cc1Nc1nc(-c2sc(NC(C)=O)nc2C)cs1 [Example 11, N-[2-(2-Methoxy-5-methyl-phenylamino)-4′-methyl-[4,5′]bithiazolyl-2′-yl]-acetamide]
4.9 | – | 3 | 0.55 | 700 | – | Cc1nc(CN2CCCC2)sc1-c1csc(Nc2cc(C(N)=O)ccc2OC(C)C)n1 [Example 130, 4-Isopropoxy-3-(4′-methyl-2′-pyrrolidin-1-ylmethyl-[4,5′]bithiazolyl-2-ylamino)-benzamide.TFA]
5.6 | – | 3.3 | 0.77 | 730 | – | Cc1nc(CN2CCN(C)CC2)sc1-c1csc(Nc2cc(C(N)=O)ccc2OC(C)C)n1 [Example 131, 4-Isopropoxy-3-[4′-methyl-2′-(4-methyl-piperazin-1-ylmethyl)-[4,5′]bithiazolyl-2-ylamino]-benzamide.TFA]
11 | – | 21 | 4.3 | 720 | – | Cc1nc(S(C)(=O)=O)sc1-c1csc(Nc2cc(C(N)=O)ccc2OC(C)C)n1 [Example 132, 4-Isopropoxy-3-(2′-methanesulfonyl-4′-methyl-[4,5′]bithiazolyl-2-ylamino)-benzamide]
3.8 | – | 4 | 0.97 | 660 | – | Cc1nc(CN(C)CCN(C)C)sc1-c1csc(Nc2cc(C(N)=O)ccc2OC(C)C)n1 [Example 133, 3-(2′-{[(2-Dimethylamino-ethyl)-methyl-amino]-methyl}-4′-methyl-[4,5]bithiazolyl-2-ylamino)-4-isopropoxy-benzamide.TFA]
0.83 | – | 0.48 | 1.7 | 730 | – | COc1ccc(-c2cn[nH]c2)cc1Nc1nc(-c2sc(C)nc2C)cs1 [Example 138, (2′,4′-Dimethyl-[4,5′]bithiazolyl-2-yl)-[2-methoxy-5-(1H-pyrazol-4-yl)-phenyl]-amine]
8.1 | – | 11 | 75 | 5200 | – | COc1ccc(-c2ccnn2C)cc1Nc1nc(-c2sc(C)nc2C)cs1 [Example 139]
26 | – | 45 | > 95 | 5500 | – | C=Cc1ccc(OC)c(Nc2nc(-c3sc(C)nc3C)cs2)c1 [Example 140, (2′,4′-Dimethyl-[4,5′]bithiazolyl-2-yl)-(2-methoxy-5-vinyl-phenyl)-amine]
4.3 | – | 15 | > 95 | ~12000 | – | COc1ccc(-c2cccnc2)cc1Nc1nc(-c2sc(C)nc2C)cs1 [Example 141, (2′,4′-Dimethyl-[4,5′]bithiazolyl-2-yl)-(2-methoxy-5-pyridin-3-yl-phenyl)-amine]
6.7 | – | 58 | > 95 | 11000 | – | COc1ccc(-c2nccs2)cc1Nc1nc(-c2sc(C)nc2C)cs1 [Example 142, (2′,4′-Dimethyl-[4,5′]bithiazolyl-2-yl)-(2-methoxy-5-thiazol-2-yl-phenyl)-amine.TFA]
6 | – | 16 | 62 | ~6000 | – | COc1ccc(-c2cncn2C)cc1Nc1nc(-c2sc(C)nc2C)cs1 [Example 143, (2′,4′-Dimethyl-[4,5′]bithiazolyl-2-yl)-[2-methoxy-5-(3-methyl-3H-imidazol-4-yl)-phenyl]-amine]
3.6 | – | 2 | 1 | 1600 | – | Cc1nc(C)c(-c2csc(Nc3cc(S(N)(=O)=O)ccc3OC(F)(F)F)n2)s1 [Example 144, 3-(2′,4′-Dimethyl-[4,5′]bithiazolyl-2-ylamino)-4-trifluoromethoxy-benzenesulfonamide.HCl]
– | 5.9 | 1.3 | 4.6 | – | – | CC(=O)Nc1nc(C)c(-c2csc(Nc3cccc4cccnc34)n2)s1 [Example 146, N-[4′-Methyl-2-(quinolin-8-ylamino)-[4,5′]bithiazolyl-2′-yl]-acetamide.TFA]
– | 20 | 7.6 | 12 | – | – | COc1ncccc1Nc1nc(-c2sc(NC(C)=O)nc2C)cs1 [Example 147, N-[2-(2-Methoxy-pyridin-3-ylamino)-4′-methyl-[4,5′]bithiazolyl-2′-yl]-acetamide.TFA]
– | 6 | > 8 | > 8 | – | – | CC(=O)Nc1nc(C)c(-c2csc(Nc3cccnc3O)n2)s1 [Example 148, N-[2-(2-Hydroxy-pyridin-3-ylamino)-4′-methyl-[4,5′]bithiazolyl-2′-yl]-acetamide.HBr]
40 | 27 | 4.4 | 5 | – | – | CC(=O)Nc1nc(C)c(-c2csc(Nc3cccc4ccccc34)n2)s1 [Example 149, N-[4′-Methyl-2-(naphthalen-1-ylamino)-[4,5′]bithiazolyl-2′-yl]-acetamide.HCl]
0.22 | – | 1.3 | 0.16 | 1200 | – | CC(C)Oc1ccc(C(N)=O)cc1Nc1nc(-c2sc(N)nc2C(F)(F)F)cs1 [Example 150, 3-(2′-Amino-4′-trifluoromethyl-[4,5′]bithiazolyl-2-ylamino)-4-isopropoxy-benzamide]
– | – | – | – | 33 | 860 | Cc1nc(C2CCN(C)CC2)sc1-c1csc(Nc2cc(C(N)=O)ccc2OC(C)C)n1 [Example 157, 4-Isopropoxy-3-((4′-methyl-2′-(1-methylpiperidin-4-yl)-[4,5′-bithiazol]-2-yl)amino)benzamide.TFA]
